Measurements published in ChEMBL document CHEMBL3286266, “Development of novel benzomorpholine class of diacylglycerol acyltransferase I inhibitors” (ACS Med Chem Lett, 2014).
Values after ≈ are worked out from the molar mass of the structure shown. Each block holds one compound with its values, some of them ahead of it. Active and inactive are the calls of the source. The rule behind the calls is not given here.

Experiments:
[1] = Oral bioavailability in rat at 10 mg/kg; type: ADME, organism-based; details: in vivo
[2] = molecular target: T1, Diacylglycerol O-acyltransferase 1 (Mus musculus, UniProt Q9Z2A7); experiment: Inhibition of mouse DGAT1 expressed in Sf9 insect cells using 1,2-dioleoyl-sn-glycerol and [14C]-palmitoyl-CoA substrate by scintillation counting analysis
T1 sequence (Q9Z2A7 whole entry): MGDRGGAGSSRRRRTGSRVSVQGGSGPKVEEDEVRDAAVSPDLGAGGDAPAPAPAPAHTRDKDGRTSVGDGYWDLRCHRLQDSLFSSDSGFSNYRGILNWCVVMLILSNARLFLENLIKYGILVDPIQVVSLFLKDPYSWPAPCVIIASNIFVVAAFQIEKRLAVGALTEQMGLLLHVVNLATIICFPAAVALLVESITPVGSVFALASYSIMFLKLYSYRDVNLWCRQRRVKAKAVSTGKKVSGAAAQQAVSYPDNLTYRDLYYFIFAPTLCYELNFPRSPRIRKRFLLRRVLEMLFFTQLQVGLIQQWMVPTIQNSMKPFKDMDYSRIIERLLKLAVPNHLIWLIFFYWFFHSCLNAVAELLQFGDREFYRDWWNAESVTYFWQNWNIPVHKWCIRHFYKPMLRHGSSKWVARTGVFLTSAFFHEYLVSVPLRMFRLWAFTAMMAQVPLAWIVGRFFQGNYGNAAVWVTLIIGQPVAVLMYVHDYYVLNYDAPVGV

[3] = Clearance in dog liver hepatocytes measured per million cells; type: ADME, Canis lupus familiaris, Hepatocyte; details: read-out: CLH
[4] = Clearance in monkey liver hepatocytes measured per million cells; type: ADME, Macaca mulatta, Hepatocyte; details: rhesus monkey, read-out: CLH
[5] = Plasma protein binding in human; type: ADME, cell-free; details: read-out: PPB
Mus musculus [6] = experiment: Induction of weight loss in diet-induced obese C57BL/6J mouse assessed as decrease in body weight at 30 mg/kg, po qd measured during 11 day chronic study; type: functional; details: 264 h
[7] = Inhibition of serotonin receptor (unknown origin); design: species or system Homo sapiens
[8] = molecular target: T2, Diacylglycerol O-acyltransferase 1 (Homo sapiens, UniProt O75907); experiment: Inhibition of human DGAT1 expressed in Sf9 insect cells using 1,2-dioleoyl-sn-glycerol and [14C]-palmitoyl-CoA substrate by scintillation counting analysis
T2 sequence (O75907 whole entry): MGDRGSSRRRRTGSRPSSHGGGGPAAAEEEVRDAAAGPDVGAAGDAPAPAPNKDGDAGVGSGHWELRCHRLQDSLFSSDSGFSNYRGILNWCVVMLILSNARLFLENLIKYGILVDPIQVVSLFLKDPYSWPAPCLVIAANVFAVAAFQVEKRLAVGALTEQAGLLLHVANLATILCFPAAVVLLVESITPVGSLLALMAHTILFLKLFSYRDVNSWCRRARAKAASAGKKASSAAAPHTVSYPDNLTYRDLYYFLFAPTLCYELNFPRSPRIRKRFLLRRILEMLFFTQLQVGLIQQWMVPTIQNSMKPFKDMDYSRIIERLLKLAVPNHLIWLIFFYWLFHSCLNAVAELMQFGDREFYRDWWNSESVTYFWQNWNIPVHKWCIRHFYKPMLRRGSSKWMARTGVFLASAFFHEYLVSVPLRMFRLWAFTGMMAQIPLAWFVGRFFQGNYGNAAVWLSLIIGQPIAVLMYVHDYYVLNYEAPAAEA

[9] = Half life in monkey at 3 mg/kg, po; type: ADME, organism-based, Macaca mulatta; design: dose 3 mg/kg, route oral; details: rhesus monkey, in vivo
Mus musculus [10] = experiment: Reduction in triglycerides level in mouse at 3 mg/kg, po after 12 hrs by postprandial triglyceride assay; type: functional
[11] = Inhibition of CCK receptor (unknown origin); design: species or system Homo sapiens
Mus musculus [12] = experiment: Reduction in triglycerides level in mouse at 3 mg/kg, po after 2 hrs by postprandial triglyceride assay; type: functional
[13] = Cmax in mouse at 1 mg/kg, po; type: ADME, organism-based; design: dose 1 mg/kg, route oral; details: in vivo
[14] = Cmax in dog at 2 mg/kg, po; type: ADME, organism-based, Canis lupus familiaris; design: dose 2 mg/kg, route oral; details: in vivo
[15] = Permeability in human Caco2 cells; type: ADME, cell-based; details: Caco-2, read-out: permeability
[16] = Half life in rat at 10 mg/kg, po; type: ADME, organism-based; design: dose 10 mg/kg, route oral; details: in vivo
[17] = Plasma protein binding in mouse; type: ADME; details: read-out: PPB
Insulin receptor = Insulin receptor (Homo sapiens, UniProt P06213); experiment: Inhibition of insulin receptor (unknown origin)
Sequence of Insulin receptor (P06213 28-758 limits assumed): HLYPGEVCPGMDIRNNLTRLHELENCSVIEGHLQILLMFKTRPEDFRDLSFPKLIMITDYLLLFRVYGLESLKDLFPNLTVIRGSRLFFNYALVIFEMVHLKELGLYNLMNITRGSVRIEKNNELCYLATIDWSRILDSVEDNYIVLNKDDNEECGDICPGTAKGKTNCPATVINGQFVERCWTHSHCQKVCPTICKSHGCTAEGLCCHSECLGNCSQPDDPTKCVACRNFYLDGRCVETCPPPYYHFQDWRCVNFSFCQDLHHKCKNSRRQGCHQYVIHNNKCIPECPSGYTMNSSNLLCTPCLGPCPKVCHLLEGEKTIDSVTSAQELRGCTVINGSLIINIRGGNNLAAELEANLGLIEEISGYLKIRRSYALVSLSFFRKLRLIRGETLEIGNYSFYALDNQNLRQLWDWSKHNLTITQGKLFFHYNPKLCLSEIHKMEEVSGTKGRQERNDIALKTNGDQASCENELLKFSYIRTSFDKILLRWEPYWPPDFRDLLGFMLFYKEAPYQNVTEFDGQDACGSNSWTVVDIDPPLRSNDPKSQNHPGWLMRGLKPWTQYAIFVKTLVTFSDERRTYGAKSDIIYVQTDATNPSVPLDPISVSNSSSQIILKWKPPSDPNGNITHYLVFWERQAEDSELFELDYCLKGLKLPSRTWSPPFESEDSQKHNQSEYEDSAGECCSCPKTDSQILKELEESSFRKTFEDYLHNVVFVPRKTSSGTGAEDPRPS
Sequence of Insulin receptor (P06213 763-1382 limits assumed): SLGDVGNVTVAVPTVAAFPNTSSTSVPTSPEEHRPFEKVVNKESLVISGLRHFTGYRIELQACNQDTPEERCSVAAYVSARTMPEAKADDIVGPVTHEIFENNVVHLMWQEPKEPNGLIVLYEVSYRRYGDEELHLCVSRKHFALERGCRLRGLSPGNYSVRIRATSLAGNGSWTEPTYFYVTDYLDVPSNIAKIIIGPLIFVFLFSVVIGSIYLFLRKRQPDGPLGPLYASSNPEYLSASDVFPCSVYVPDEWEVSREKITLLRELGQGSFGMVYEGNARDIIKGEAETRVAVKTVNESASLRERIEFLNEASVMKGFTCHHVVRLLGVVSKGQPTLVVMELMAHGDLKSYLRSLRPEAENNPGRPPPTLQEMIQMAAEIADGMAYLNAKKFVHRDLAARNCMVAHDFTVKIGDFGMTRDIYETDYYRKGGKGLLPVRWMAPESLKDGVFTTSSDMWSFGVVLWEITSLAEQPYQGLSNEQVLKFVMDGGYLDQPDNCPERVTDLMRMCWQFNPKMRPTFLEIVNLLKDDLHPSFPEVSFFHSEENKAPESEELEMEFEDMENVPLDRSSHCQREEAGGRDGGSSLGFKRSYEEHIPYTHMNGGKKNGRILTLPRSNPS

[18] = molecular target: Epidermal growth factor receptor (Homo sapiens, UniProt P00533); experiment: Inhibition of EGF receptor (unknown origin)
Sequence of Epidermal growth factor receptor (P00533 whole entry): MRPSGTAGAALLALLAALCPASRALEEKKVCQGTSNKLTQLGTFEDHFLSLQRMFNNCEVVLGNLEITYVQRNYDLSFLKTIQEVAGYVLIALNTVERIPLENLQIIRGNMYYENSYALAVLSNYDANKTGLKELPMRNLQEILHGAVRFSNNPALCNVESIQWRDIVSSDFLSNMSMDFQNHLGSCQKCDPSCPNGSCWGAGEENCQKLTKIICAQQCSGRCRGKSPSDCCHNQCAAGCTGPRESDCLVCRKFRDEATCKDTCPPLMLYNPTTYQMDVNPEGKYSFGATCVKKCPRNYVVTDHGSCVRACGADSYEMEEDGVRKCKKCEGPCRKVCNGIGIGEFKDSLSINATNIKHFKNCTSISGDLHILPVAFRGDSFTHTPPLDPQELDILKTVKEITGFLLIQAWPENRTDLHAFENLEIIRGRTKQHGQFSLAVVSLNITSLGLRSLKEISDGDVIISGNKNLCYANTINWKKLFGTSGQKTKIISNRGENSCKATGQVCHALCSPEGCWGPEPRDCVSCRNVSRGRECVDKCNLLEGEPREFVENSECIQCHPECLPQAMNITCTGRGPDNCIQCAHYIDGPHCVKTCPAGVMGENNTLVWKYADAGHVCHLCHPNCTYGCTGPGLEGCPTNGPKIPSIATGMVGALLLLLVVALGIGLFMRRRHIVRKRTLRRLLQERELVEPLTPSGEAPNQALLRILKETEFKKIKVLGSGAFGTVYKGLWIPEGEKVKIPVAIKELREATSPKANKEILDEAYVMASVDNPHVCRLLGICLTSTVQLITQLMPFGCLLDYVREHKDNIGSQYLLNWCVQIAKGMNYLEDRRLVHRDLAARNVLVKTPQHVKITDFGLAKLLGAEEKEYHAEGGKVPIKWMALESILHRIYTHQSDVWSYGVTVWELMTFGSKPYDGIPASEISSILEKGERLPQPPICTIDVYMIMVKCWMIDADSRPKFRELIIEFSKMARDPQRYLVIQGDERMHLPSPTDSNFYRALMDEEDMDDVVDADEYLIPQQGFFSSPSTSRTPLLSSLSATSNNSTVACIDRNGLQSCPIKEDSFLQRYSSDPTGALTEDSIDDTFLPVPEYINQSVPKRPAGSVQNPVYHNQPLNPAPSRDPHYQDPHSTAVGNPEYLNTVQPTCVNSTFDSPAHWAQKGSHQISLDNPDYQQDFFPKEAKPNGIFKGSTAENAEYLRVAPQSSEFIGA

[19] = AUC in dog at 2 mg/kg, po; type: ADME, organism-based, Canis lupus familiaris; design: dose 2 mg/kg, route oral; details: plasma
[20] = Cmax in rat at 10 mg/kg, po; type: ADME, organism-based; design: dose 10 mg/kg, route oral; details: in vivo
Prostacyclin receptor = Prostacyclin receptor (Homo sapiens, UniProt P43119); experiment: Inhibition of prostanoid IP receptor (unknown origin)
Sequence of Prostacyclin receptor (P43119 whole entry): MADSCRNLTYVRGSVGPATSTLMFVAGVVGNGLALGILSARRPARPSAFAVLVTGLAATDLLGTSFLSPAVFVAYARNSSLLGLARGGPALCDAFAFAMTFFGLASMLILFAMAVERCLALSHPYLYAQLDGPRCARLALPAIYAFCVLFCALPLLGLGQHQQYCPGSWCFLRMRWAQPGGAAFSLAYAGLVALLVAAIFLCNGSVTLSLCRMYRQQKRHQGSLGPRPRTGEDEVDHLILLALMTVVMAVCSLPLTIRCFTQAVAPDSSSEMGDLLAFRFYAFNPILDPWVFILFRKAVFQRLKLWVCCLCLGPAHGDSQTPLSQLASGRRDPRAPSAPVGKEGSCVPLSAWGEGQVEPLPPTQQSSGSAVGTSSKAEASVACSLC

[21] = Oral bioavailability in mouse at 1 mg/kg; type: ADME, organism-based; details: in vivo
Caspase-9 = molecular target: T3, Caspase-9 (Homo sapiens, UniProt P55211); experiment: Inhibition of CASP9 (unknown origin)
T3 sequence (P55211 whole entry): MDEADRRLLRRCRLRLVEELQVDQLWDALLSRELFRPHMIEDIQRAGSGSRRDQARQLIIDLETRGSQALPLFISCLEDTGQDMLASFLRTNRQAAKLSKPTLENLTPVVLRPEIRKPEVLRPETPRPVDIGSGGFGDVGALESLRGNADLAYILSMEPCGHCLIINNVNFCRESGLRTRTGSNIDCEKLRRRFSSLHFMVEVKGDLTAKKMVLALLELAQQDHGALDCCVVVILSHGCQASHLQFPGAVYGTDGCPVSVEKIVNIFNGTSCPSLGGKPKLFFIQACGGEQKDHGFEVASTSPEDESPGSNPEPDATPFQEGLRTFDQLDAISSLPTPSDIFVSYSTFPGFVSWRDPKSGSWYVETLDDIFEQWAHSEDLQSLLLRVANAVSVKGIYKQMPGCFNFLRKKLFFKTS

[22] = Half life in mouse at 1 mg/kg, po; type: ADME, organism-based; design: dose 1 mg/kg, route oral; details: in vivo
[23] = Solubility in plasma (unknown origin) at pH 7; type: ADME, cell-free
[24] = Half life in dog at 2 mg/kg, po; type: ADME, organism-based, Canis lupus familiaris; design: dose 2 mg/kg, route oral; details: in vivo
[25] = Inhibition of histamine receptor (unknown origin); design: species or system Homo sapiens
Hepatocyte = experiment: Clearance in human liver hepatocytes measured per million cells; type: ADME, cell-based
[26] = Clearance in rat liver hepatocytes measured per million cells; type: ADME, cell-based, Hepatocyte; details: read-out: CLH
Cannabinoid receptor 1 = Cannabinoid receptor 1 (Homo sapiens, UniProt P21554); experiment: Inhibition of CB1 receptor (unknown origin)
Sequence of Cannabinoid receptor 1 (P21554 whole entry): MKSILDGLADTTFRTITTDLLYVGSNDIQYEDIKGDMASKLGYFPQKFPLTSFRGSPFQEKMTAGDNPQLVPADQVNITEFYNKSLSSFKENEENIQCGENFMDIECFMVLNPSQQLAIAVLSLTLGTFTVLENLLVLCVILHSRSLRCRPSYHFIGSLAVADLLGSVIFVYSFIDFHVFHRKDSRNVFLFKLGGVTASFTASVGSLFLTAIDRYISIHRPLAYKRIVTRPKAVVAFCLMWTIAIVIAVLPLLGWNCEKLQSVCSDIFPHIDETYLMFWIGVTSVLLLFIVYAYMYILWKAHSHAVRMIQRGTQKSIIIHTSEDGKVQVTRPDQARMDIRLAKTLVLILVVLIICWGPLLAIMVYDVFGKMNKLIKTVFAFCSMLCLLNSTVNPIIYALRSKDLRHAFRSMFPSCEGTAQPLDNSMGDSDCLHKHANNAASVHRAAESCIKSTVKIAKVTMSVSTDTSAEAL

[27] = Inhibition of neuropeptide Y receptor (unknown origin); design: species or system Homo sapiens
[28] = Inhibition of purinergic receptor (unknown origin); design: species or system Homo sapiens
Mus musculus [29] = experiment: Induction of weight loss in diet-induced obese C57BL/6J mouse assessed as reduction in food intake at 30 mg/kg, po qd measured during 1 to 4 days; type: functional, organism-based; design: dose 30 mg/kg
[30] = Clearance in mouse liver hepatocytes measured per million cells; type: ADME, Hepatocyte; details: read-out: CLH
[31] = AUC in rat at 10 mg/kg, po; type: ADME, organism-based; design: dose 10 mg/kg, route oral; details: plasma
Caspase-8 = Caspase-8 (Homo sapiens, UniProt Q14790); experiment: Inhibition of CASP8 (unknown origin)
Sequence of Caspase-8 (Q14790 217-374 limits assumed): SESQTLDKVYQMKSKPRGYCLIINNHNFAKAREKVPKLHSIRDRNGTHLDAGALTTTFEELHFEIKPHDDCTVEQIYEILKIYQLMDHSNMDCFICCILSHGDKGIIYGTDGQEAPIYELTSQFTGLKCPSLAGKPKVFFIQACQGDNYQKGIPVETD
Sequence of Caspase-8 (Q14790 385-479 limits assumed): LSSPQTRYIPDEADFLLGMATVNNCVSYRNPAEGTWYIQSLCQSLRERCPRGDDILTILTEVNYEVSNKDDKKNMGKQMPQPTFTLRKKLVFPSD

[32] = AUC in monkey at 3 mg/kg, po; type: ADME, organism-based, Macaca mulatta; design: dose 3 mg/kg, route oral; details: rhesus monkey, plasma
[33] = Cmax in monkey at 3 mg/kg, po; type: ADME, organism-based, Macaca mulatta; design: dose 3 mg/kg, route oral; details: rhesus monkey, in vivo
[34] = AUC in mouse at 1 mg/kg, po; type: ADME, organism-based; design: dose 1 mg/kg, route oral; details: plasma
D(2) dopamine receptor = D(2) dopamine receptor (Homo sapiens, UniProt P14416); experiment: Inhibition of D2 receptor (unknown origin)
Sequence of D(2) dopamine receptor (P14416 whole entry): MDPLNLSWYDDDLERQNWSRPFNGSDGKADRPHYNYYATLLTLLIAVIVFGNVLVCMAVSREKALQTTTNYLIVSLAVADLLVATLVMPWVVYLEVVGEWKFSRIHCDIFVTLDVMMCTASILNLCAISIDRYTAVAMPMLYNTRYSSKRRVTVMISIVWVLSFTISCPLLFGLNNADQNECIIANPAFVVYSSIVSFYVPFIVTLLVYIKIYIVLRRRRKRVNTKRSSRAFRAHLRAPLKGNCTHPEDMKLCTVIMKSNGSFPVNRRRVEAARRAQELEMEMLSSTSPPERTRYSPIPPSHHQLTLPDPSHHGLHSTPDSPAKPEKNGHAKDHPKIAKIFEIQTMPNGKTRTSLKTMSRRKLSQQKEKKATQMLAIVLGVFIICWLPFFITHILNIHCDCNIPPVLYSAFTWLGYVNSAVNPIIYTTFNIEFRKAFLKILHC

Mus musculus [35] = experiment: Induction of weight loss in diet-induced obese C57BL/6J mouse assessed as decrease in body weight at 10 mg/kg, po qd measured during 11 day chronic study; type: functional; design: scale not given: the % may be the effect or the level left

bioavailability [1]: 75%
IC50 [2]: 0.044 µM
hepatocyte CLint [3]: 16 µL/min/1e6 cells
hepatocyte CLint [4]: 14 µL/min/1e6 cells
fraction unbound [5]: < 0.005
IC50 [7]: > 10 µM
IC50 [8]: 0.064 µM
half-life [9]: 3 h
IC50 [11]: > 10 µM
Cmax [13]: 0.6 µM
Cmax [14]: 3.3 µM
Papp [15]: 20.1 ×10⁻⁶ cm/s
half-life [16]: 3 h
fraction unbound [17]: < 0.005
IC50 (Insulin receptor): 5.7 µM
IC50 [18]: 7.5 µM
AUC [19]: 23 µM·h
Cmax [20]: 9.1 µM
IC50 (Prostacyclin receptor): 1 µM
bioavailability [21]: 89%
IC50 (Caspase-9): 5 µM
half-life [22]: 6.2 h
solubility [23]: 50 µM (≈ 25.6 µg/mL)
half-life [24]: 3 h
IC50 [25]: > 10 µM
CLH (Hepatocyte): 14 µL/min/1e6 cells
hepatocyte CLint [26]: 10 µL/min/1e6 cells
IC50 (Cannabinoid receptor 1): > 10 µM
IC50 [27]: > 10 µM
IC50 [28]: > 10 µM
hepatocyte CLint [30]: 6.2 µL/min/1e6 cells
AUC [31]: 41 µM·h
IC50 (Caspase-8): 6.8 µM
AUC [32]: 64 µM·h
Cmax [33]: 5.7 µM
AUC [34]: 3.7 µM·h
IC50 (D(2) dopamine receptor): > 10 µM
SMILES: CCc1ccccc1NC(=O)N1C[C@@H](C)Oc2cc(-c3ccc([C@H]4CC[C@H](CC(=O)O)CC4)cc3)ccc21
inhibition in vivo at 30 mg/kg (Mus musculus [6]): > 5%
inhibition in vivo at 3 mg/kg (Mus musculus [10]): 87%
inhibition in vivo at 3 mg/kg (Mus musculus [12]): 93%
Activity (Mus musculus [29]): Active

SMILES: O=C(Nc1ccc(OC(F)(F)F)cc1)Nc1ccc(-c2ccc(C(=O)[C@@H]3CCC[C@H]3C(=O)O)cc2)cc1F
Activity (Mus musculus [35]): 2%
